The assay deals with T1, KIT D816H (Homo sapiens, UniProt P10721, D816H).
T1 construct: purchased Thermo Fisher Scientific (Life Technologies) SelectScreen
Kind of assay: SelectScreen LanthaScreen. It is filed as binding. The settings on record: read-out: % displacement. The method in brief:
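Percent values come from Thermo SelectScreen profiling of NU5455, combining activity and binding assays. CSF1R was run in Z'LYTE format at Km app ATP, and CAMK1 in Adapta format with ATP listed at 10.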

T1 sequence (P10721 26-976 D816H): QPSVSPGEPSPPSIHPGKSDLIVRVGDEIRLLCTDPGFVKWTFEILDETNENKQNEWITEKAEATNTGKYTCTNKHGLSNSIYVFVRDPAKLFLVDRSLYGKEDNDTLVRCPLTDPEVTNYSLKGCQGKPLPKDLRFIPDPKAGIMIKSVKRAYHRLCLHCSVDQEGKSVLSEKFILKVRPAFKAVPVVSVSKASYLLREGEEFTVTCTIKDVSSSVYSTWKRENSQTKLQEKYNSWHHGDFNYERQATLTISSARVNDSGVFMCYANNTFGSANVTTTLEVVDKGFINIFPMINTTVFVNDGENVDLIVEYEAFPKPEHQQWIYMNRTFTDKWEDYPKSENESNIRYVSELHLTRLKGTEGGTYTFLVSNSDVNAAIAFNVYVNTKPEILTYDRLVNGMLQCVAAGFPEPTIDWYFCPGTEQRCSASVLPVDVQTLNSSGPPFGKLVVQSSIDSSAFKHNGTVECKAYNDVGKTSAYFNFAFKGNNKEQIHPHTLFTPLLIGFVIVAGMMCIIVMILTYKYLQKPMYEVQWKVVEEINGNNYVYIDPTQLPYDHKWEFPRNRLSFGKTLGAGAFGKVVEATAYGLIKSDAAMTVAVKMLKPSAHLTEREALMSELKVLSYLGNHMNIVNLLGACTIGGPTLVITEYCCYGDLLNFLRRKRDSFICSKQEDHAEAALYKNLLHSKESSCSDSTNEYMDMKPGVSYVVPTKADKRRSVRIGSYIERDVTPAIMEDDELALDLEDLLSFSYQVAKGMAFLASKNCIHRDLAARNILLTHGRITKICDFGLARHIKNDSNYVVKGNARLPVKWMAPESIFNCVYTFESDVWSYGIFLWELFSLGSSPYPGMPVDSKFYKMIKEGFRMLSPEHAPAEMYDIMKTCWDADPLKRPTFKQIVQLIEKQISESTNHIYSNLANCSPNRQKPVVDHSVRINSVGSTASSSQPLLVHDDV

For `CN(C(=O)CN1CCOCC1)c1ccc2sc3c(-c4cccc5c(=O)cc(N6CC7CCC(C6)O7)oc45)cccc3c2c1` [NU5455], the inhibition at 1 µM is -0.2%.

These data come from publication PMC6934184, “Selective DNA-PKcs inhibition extends the therapeutic index of localized radiotherapy and chemotherapy” (The Journal of Clinical Investigation, 2019).
